This passage reports IC50 results from patent US9718788B2, “Heteroaryl compounds useful as inhibitors of E1 activating enzymes” (MILLENNIUM PHARMACEUTICALS, INC., priority 2006, dated 2017).

Some results are limits rather than exact numbers.

The assay concerns the target T1, recombinant human NAE enzyme (Homo sapiens, UniProt Q8TBC4).
T1 construct: His (N); made in house; host or cells: Sf9 insect cells (baculovirus, Bac-to-Bac)
T1 sequence (Q8TBC4 1-463): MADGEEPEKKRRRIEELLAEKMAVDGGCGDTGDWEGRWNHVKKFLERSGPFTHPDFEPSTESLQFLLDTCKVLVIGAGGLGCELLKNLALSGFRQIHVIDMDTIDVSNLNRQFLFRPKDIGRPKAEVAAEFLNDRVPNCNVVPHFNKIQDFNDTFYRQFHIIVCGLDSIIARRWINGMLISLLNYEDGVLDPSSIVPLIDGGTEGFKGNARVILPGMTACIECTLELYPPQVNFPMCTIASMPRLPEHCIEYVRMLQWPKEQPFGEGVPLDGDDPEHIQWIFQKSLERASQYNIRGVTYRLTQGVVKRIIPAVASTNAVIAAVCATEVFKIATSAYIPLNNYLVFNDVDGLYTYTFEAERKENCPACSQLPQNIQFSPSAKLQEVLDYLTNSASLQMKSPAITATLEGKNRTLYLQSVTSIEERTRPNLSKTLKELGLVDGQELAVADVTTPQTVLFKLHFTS
T1 sequence (Q13564 1-534 partner): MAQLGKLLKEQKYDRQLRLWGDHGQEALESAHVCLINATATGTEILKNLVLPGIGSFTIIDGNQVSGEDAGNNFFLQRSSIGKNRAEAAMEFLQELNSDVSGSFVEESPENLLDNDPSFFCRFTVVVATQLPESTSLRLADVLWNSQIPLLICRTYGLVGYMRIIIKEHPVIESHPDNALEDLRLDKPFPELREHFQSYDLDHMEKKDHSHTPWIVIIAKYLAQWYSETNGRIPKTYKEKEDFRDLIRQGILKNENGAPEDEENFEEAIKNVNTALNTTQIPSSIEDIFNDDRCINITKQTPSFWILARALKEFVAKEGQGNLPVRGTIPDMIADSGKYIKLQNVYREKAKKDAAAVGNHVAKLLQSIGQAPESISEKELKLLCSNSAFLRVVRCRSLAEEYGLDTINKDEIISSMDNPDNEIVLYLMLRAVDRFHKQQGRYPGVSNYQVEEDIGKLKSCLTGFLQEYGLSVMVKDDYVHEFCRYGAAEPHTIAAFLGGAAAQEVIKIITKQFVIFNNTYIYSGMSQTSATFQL
Put plainly: Nedd8-Activating Enzyme (NAE) HTRF Assay. It is filed as biochemical. The following applies: 20 μM ATP. Summed up:
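Recombinant human NAE (NAEα/His-NAEβ from Sf9 cells) at 0.20 nM with 20 μM ATP, 0.01 μM Ubc12-GST and 0.075 μM Nedd8-Flag in HEPES pH 7.5, 105 min at 24° C. EDTA stop; Eu-anti-FLAG/APC-anti-GST HTRF read after 1 h.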

For the compound `Cn1c(-c2ccccc2)nc2c(N[C@@H]3C[C@@H](COS(N)(=O)=O)[C@@H](O)C3)ncnc21` [Compound I-130, {(1S,2S,4R)-2-hydroxy-4-[(9-methyl-8-phenyl-9H-purin-6-yl)amino]cyclopentyl}methyl sulfamate], the IC50 (bound given in nM) is at most 500 nM.

Consider `CC(C)(C)c1nc2c(N[C@@H]3C[C@@H](COS(N)(=O)=O)[C@@H](O)C3)ncnc2[nH]1` [Compound I-131, {(1S,2S,4R)-4-[(8-tert-butyl-9H-purin-6-yl)amino]-2-hydroxycyclopentyl}methyl sulfamate], for which the IC50 (bound given in nM) was at most 500 nM.

`NS(=O)(=O)OC[C@@H]1C[C@@H](Oc2cc(Cc3ccccc3)ncn2)C[C@@H]1O` [Compound I-132, {(1S,2S,4R)-4-[(6-benzylpyrimidin-4-yl)oxy]-2-hydroxycyclopentyl}methyl sulfamate]: the IC50 reads like this: (bound given in nM) above 500 nM; (bound given in μM) below 10000 nM.

In the case of `COc1ccccc1-c1nc2c(N[C@@H]3C[C@@H](COS(N)(=O)=O)[C@@H](O)C3)ncnc2[nH]1` [Compound I-133, ((1S,2S,4R)-2-hydroxy-4-{[8-(2-methoxyphenyl)-9H-purin-6-yl]amino}cyclopentyl)methyl sulfamate], the IC50 (bound given in nM) was at most 500 nM.

With `CC1(C)C[C@H](Nc2ncnc(N[C@@H]3C[C@@H](COS(N)(=O)=O)[C@@H](O)C3)n2)c2ccccc21` [Compound I-134, {(1S,2S,4R)-4-[(4-{[(1S)-3,3-dimethyl-2,3-dihydro-1H-inden-1-yl]amino}-1,3,5-triazin-2-yl)amino]-2-hydroxycyclopentyl}methyl sulfamate], the IC50 (bound given in nM) was at most 500 nM.

For `Cc1cccc(Sc2nc3ncnc(O[C@@H]4C[C@@H](COS(N)(=O)=O)[C@@H](O)C4)c3[nH]2)c1` [Compound I-136, [(1S,2S,4R)-2-hydroxy-4-({8-[(3-methylphenyl)sulfanyl]-7H-purin-6-yl}oxy)cyclopentyl]methyl sulfamate], the IC50 (bound given in nM) was at most 500 nM.

On to `CN(C)c1ccccc1-c1nc2c(N[C@@H]3C[C@@H](COS(N)(=O)=O)[C@@H](O)C3)ncnc2[nH]1` [Compound I-137, [(1S,2S,4R)-4-({8-[2-(dimethylamino)phenyl]-9H-purin-6-yl}amino)-2-hydroxycyclopentyl]methyl sulfamate], for which, for the setting “bound given in nM”, the IC50 is at most 500 nM.

`OC[C@@H]1C[C@@H](Nc2ncnc3[nH]c(-c4cccc5c4OCCO5)nc23)C[C@@H]1O` [Compound I-138, (1S,2S,4R)-4-{[8-(2,3-dihydro-1,4-benzodioxin-5-yl)-9H-purin-6-yl]amino}-2-(hydroxymethyl)cyclopentanol]: the IC50 (bound given in nM) is above 500 nM and the IC50 (bound given in μM) was below 10000 nM.

For the compound `NS(=O)(=O)OC[C@@H]1C[C@@H](Oc2ncnc3nc(-c4ccc(N5CCCC5)c5ccccc45)[nH]c23)C[C@@H]1O` [Compound I-139, ((1S,2S,4R)-2-hydroxy-4-{[8-(4-pyrrolidin-1-yl-1-naphthyl)-7H-purin-6-yl]oxy}cyclopentyl)methyl sulfamate], the IC50 (bound given in nM) is at most 500 nM.

Regarding `NS(=O)(=O)OC[C@@H]1C[C@@H](Oc2ncnc3nc(-c4c[nH]c5ccccc45)[nH]c23)C[C@@H]1O` [Compound I-140, ((1S,2S,4R)-2-hydroxy-4-{[8-(1H-indol-3-yl)-7H-purin-6-yl]oxy}cyclopentyl)methyl sulfamate], the IC50 (bound given in nM) was at most 500 nM.

Take `NS(=O)(=O)OC[C@@H]1C[C@@H](Oc2cc(OCc3ccc4ccccc4c3)ncn2)C[C@@H]1O` [Compound I-141, ((1S,2S,4R)-2-hydroxy-4-{[6-(2-naphthylmethoxy)pyrimidin-4-yl]oxy}cyclopentyl)methyl sulfamate]: the IC50 (bound given in nM) is above 500 nM and the IC50 (bound given in μM) was below 10000 nM.

As to `CO[C@H]1CCc2ccccc2[C@H]1Nc1cc(O[C@@H]2C[C@@H](COS(N)(=O)=O)[C@@H](O)C2)ncn1` [Compound I-142, {(1S,2S,4R)-2-hydroxy-4-[(6-{[(1R,2S)-2-methoxy-1,2,3,4-tetrahydronaphthalen-1-yl]amino}pyrimidin-4-yl)oxy]cyclopentyl}methyl sulfamate], under “bound given in nM”, the IC50 is at most 500 nM.

Turning to `CO[C@@H]1CCc2ccccc2[C@@H]1Nc1cc(O[C@@H]2C[C@@H](COS(N)(=O)=O)[C@@H](O)C2)ncn1` [Compound I-143, {(1S,2S,4R)-2-hydroxy-4-[(6-{[(1S,2R)-2-methoxy-1,2,3,4-tetrahydronaphthalen-1-yl]amino}pyrimidin-4-yl)oxy]cyclopentyl}methyl sulfamate], the IC50 (bound given in nM) was at most 500 nM.

On to `NS(=O)(=O)OC[C@H]1C[C@@H](Nc2ccnc(C(=O)N[C@H]3CCc4ccccc43)c2)[C@H](O)[C@@H]1O` [Compound I-144, {(1R,2R,3S,4R)-4-[(2-{[(1S)-2,3-dihydro-1H-inden-1-ylamino]carbonyl}pyridin-4-yl)-amino]-2,3-dihydroxycyclopentyl}methyl sulfamate], for which the 50% inhibitory concentration (IC50) (bound given in μM) was above 10000 nM.

Turning to `NS(=O)(=O)OC[C@H]1C[C@@H](Nc2ccnc(C(=O)N3CCc4ccccc43)c2)[C@H](O)[C@@H]1O` [Compound I-145, ((1R,2R,3S,4R)-4-{[2-(2,3-dihydro-1H-indol-1-ylcarbonyl)pyridin-4-yl]amino}-2,3-dihydroxycyclopentyl)methyl sulfamate], the half-inhibitory concentration (IC50) (bound given in μM) was above 10000 nM.

Regarding `NS(=O)(=O)OC[C@@H]1C[C@@H](N2CCc3c(N[C@H]4CCc5ccccc54)ncnc32)C[C@@H]1O` [Compound I-146, ((1S,2S,4R)-4-{4-[(1S)-2,3-dihydro-1H-inden-1-ylamino]-5,6-dihydro-7H-pyrrolo[2,3-d]pyrimidin-7-yl}-2-hydroxycyclopentyl)methyl sulfamate], under “bound given in nM”, the IC50 is at most 500 nM.

On to `NS(=O)(=O)OC[C@@H]1C[C@@H](Nc2ncnc(N[C@@H]3c4ccccc4CC3(F)F)n2)C[C@@H]1O` [Compound I-147, {(1S,2S,4R)-4-[(4-{[(1R)-2,2-difluoro-2,3-dihydro-1H-inden-1-yl]amino}-1,3,5-triazin-2-yl)amino]-2-hydroxycyclopentyl}methyl sulfamate], for which the IC50 (bound given in nM) is at most 500 nM.

`COc1ccc2c(c1)[C@H](Nc1cc(O[C@@H]3C[C@@H](COS(N)(=O)=O)[C@@H](O)C3)ncn1)[C@H](OC)CC2` [Compound I-148, {(1S,2S,4R)-4-[(6-{[(1S,2R)-2,7-dimethoxy-1,2,3,4-tetrahydronaphthalen-1-yl]amino}-pyrimidin-4-yl)oxy]-2-hydroxycyclopentyl}methyl sulfamate]: the IC50 runs as follows: (bound given in nM) above 500 nM; (bound given in μM) below 10000 nM.

On to `COc1ccc2c(c1)[C@@H](Nc1cc(O[C@@H]3C[C@@H](COS(N)(=O)=O)[C@@H](O)C3)ncn1)[C@@H](OC)CC2` [Compound I-149, {(1S,2S,4R)-4-[(6-{[(1R,2S)-2,7-dimethoxy-1,2,3,4-tetrahydronaphthalen-1-yl]amino}-pyrimidin-4-yl)oxy]-2-hydroxycyclopentyl}methyl sulfamate], for which the concentration for half-maximal inhibition (IC50) (bound given in nM) is above 500 nM and the IC50 (bound given in μM) was below 10000 nM.

For `CO[C@H]1CC(C)(C)c2ccccc2[C@H]1Nc1cc(O[C@@H]2C[C@@H](COS(N)(=O)=O)[C@@H](O)C2)ncn1` [Compound I-150, {(1S,2S,4R)-2-hydroxy-4-[(6-{[(1R,2S)-2-methoxy-4,4-dimethyl-1,2,3,4-tetrahydronaphthalen-1-yl]amino}pyrimidin-4-yl)oxy]cyclopentyl}methyl sulfamate], under “bound given in nM”, the half-maximal inhibitory concentration (IC50) is at most 500 nM.
